Results taken from patent publication US10544154B2, “Opioid receptor antagonist prodrugs” (Nirsum Laboratories, Inc., priority 2017, dated 2020).
Entries after “also recorded” stand apart in the source; their conditions may differ.

Assay: Clinical observations for dogs in pharmacokinetic studies
Assay type: in vivo, Beagle dogs
Conditions: 48 mg/kg
Method: Weight monitoring was done every week.
The dose formulation (concentration—400 mg base equivalents/ml in sesame oil+1% benzyl alcohol, unless otherwise specified) was administered via deep intramuscularly (unless otherwise specified). The injection vehicle was also dosed via deep intramuscular route (unless otherwise specified) on contralateral site of each animal at study initiation. The animals were sedated with Propofol at 6 mg/kg via IV administration. Following sedation hair was carefully removed from around the injection site and the area gently cleaned. Care will be taken to avoid irritating skin during shaving and cleaning the injection site. Then dogs will be dosed with deep IM administration. At least 2.5 cm depth from the surface into the central aspect of the quadriceps or biceps femoris muscle, by angling the needle toward the femur. If the needle hits the femur, simply draws back slightly and then inject. The dose volume will be determined by the animals' body weight collected on the morning of dosing day. For repeated administration, the injection sites may be rotated to minimize tissue injury.

[1] = dog D1502 (third dog, c6), 96 hr
[2] = dog D1502 (third dog, c6), 120 hr
[3] = dog D1502 (third dog, c6), 144 hr
[4] = dog D1502 (third dog, c6), 192 hr
[5] = dog D1502 (third dog, c6), 216 hr

Structure (SMILES): C=C1CC[C@@]2(O)C3Cc4ccc(OC(=O)OCCCCCCCCCCC)c5c4[C@@]2(CCN3CC2CC2)[C@H]1O5 [Compound 3, (4aS,7aS,12bS)-3-(cyclopropylmethyl)-4a-hydroxy-7-methylene-2,3,4,4a,5,6,7,7a-octahydro-1H-4,12-methanobenzofuro[3,2-e]isoquinolin-9-yl undecyl carbonate]
- BT (dog D1001, Day 1): cm/BT: 39.2° C./
- BT (dog D1001, Day 2): 38.9 °C
- BT (dog D1001, Day 3): 39.1 °C
- BT (dog D1001, Day 4): 38.5 °C
- BT (dog D1001, Day 5): 38.6 °C
- BT (dog D1001, Day 6): 38.4 °C
- BT (dog D1001, Day 7): 38.4 °C
- BT (dog D1001, Day 8): 38.7 °C
- BT (dog D1001, Day 9): 38.7 °C
- BT (dog D1001, Day 10): 38.4 °C
- BT (dog D1001, Day 11): 38.8 °C
- BT (dog D1001, Day 12): 38.0 °C
- BT (dog D1001, Day 13): 38.4 °C
- BT (dog D1001, Day 15): 37.8 °C
- BT (dog D1001, Day 17): BT: 38.3 °C
- BT (dog D1001, Day 18): BT: 38.4 °C
- BT (dog D1001, Day 19): BT: 38.3 °C
- BT (dog D1001, Day 20): BT: 37.9 °C
- BT (dog D1001, Day 21): BT: 38.6 °C
- BT (dog D1001, Day 22): BT: 38.8 °C
- BT (dog D1001, Day 23): BT: 38.3 °C
- BT (dog D1001, Day 24): BT: 38.5 °C
- BT (dog D1001, Day 25): BT: 38.4 °C
- BT (dog D1001, Day 26): BT: 38.2 °C
- BT (dog D1001, Day 27): BT: 38.4 °C
- BT (dog D1002, Day 1): 39.1 °C
- BT (dog D1002, Day 2): 39.3 °C
- BT (dog D1002, Day 3): 39.3 °C
- BT (dog D1002, Day 4): 38.5 °C
- BT (dog D1002, Day 5): 38.7 °C
- BT (dog D1002, Day 6): 38.8 °C
- BT (dog D1002, Day 7): 38.6 °C
- BT (dog D1002, Day 8): 38.7 °C
- BT (dog D1002, Day 9): 38.3 °C
- BT (dog D1002, Day 10): calf/BT: 38.3 °C
- BT (dog D1002, Day 11): 38.9 °C
- BT (dog D1002, Day 12): 38.5 °C
- BT (dog D1002, Day 13): 38.8 °C
- BT (dog D1002, Day 14): 38.3 °C
- BT (dog D1002, Day 15): 37.8 °C
- BT (dog D1002, Day 17): 38.7 °C
- BT (dog D1002, Day 18): 38.8 °C
- BT (dog D1002, Day 19): 38.7 °C
- BT (dog D1002, Day 20): 38.6 °C
- BT (dog D1002, Day 21): BT: 38.5 °C
- BT (dog D1002, Day 22): BT: 39.3 °C
- BT (dog D1002, Day 23): BT: 38.8 °C
- BT (dog D1002, Day 24): BT: 39.1 °C
- BT (dog D1002, Day 25): BT: 38.6 °C
- BT (dog D1002, Day 26): BT: 38.6 °C
- BT (dog D1002, Day 27): cm/BT: 38.6 °C
- Clinical observation, R-TA (dog D1003, 8 hr): Swelling 4 * 3
- BT (dog D1003, Day 1): side/BT: 39.6 °C
- BT (dog D1003, Day 2): side/BT: 39.7 °C
- BT (dog D1003, Day 3): 39.2 °C
- BT (dog D1003, Day 4): site/BT: 38.7 °C
- BT (dog D1003, Day 5): 39.0 °C
- BT (dog D1003, Day 6): 39.2 °C
- BT (dog D1003, Day 7): 39.5 °C
- BT (dog D1003, Day 8): 39.4 °C
- BT (dog D1003, Day 9): 38.8 °C
- BT (dog D1003, Day 10): 38.9 °C
- BT (dog D1003, Day 11): swelling/BT: 39.4 °C
- BT (dog D1003, Day 12): swelling/BT: 39.3 °C
- BT (dog D1003, Day 13): swelling/BT: 39.9 °C
- BT (dog D1003, Day 15): swelling/BT: 39.4 °C
- BT (dog D1003, Day 17): swelling/BT: 39.5 °C
- BT (dog D1003, Day 18): swelling/BT: 39.5 °C
- BT (dog D1003, Day 19): swelling/BT: 39.4 °C
- BT (dog D1003, Day 21): swelling/BT: 39.3 °C
- BT (dog D1003, Day 22): swelling/BT: 39.9 °C
- BT (dog D1003, Day 24): BT: 39.5 °C
- BT (dog D1003, Day 25): BT: 39.8 °C
- BT (dog D1003, Day 26): BT: 39.3 °C
- BT (dog D1003, Day 27): BT: 38.9 °C

Structure (SMILES): C=C1CC[C@@]2(O)C3Cc4ccc(OCOC(=O)OCCCCCCCCCC)c5c4[C@@]2(CCN3CC2CC2)[C@H]1O5 [Compound 35, (((4aS,7aS,12bS)-3-(cyclopropylmethyl)-4a-hydroxy-7-methylene-2,3,4,4a,5,6,7,7a-octahydro-1H-4,12-methanobenzofuro[3,2-e]isoquinolin-9-yl)oxy)methyl decyl carbonate]
- Clinical observation, R-TA (dog D1501, 24 hr): Red spots at groin
- Clinical observation, R-TA (dog D1501, 48 hr): Red spots at groin
- BT (dog D1501, 72 hr): at groin/BT: 39.1 °C
- Clinical observation, R-TA (dog D1501, 72 hr): Swelling; also recorded: Red spots
- BT (dog D1501, 96 hr): at groin/BT: 39.0 °C
- Clinical observation, R-TA (dog D1501, 96 hr): Swelling; also recorded: Red spots
- BT (dog D1501, 120 hr): at groin/BT: 39.1 °C
- Clinical observation, R-TA (dog D1501, 120 hr): Swelling; also recorded: Red spots
- BT (dog D1501, 144 hr): groin/BT: 38.7 °C
- BT (dog D1501, 192 hr): groin/BT: 38.2 °C
- BT (dog D1501, 216 hr): groin/BT: 38.6 °C
- Clinical observation, R-TA (dog D1501, 216 hr): redness/Red spots at
- BT (dog D1501, 240 hr): groin/BT: 38.2 °C
- Clinical observation, R-TA (dog D1501, 240 hr): induration
- BT (dog D1501, 264 hr): groin/BT: 38.0 °C
- Clinical observation, R-TA (dog D1501, 264 hr): induration
- BT (dog D1501, 288 hr): groin/BT: 38.4 °C
- Clinical observation, R-TA (dog D1501, 288 hr): induration
- BT (dog D1501, […]): groin/BT: 38.9 °C
- Clinical observation, R-TA (dog D1501, day 13): induration
- Clinical observation, R-TA (dog D1501, day 14): induration
- Clinical observation, R-TA (dog D1501, day 15): induration
- Clinical observation, R-TA (dog D1501, day 16): induration
- Clinical observation, R-TA (dog D1501, day 17): induration
- Clinical observation, R-TA (dog D1501, day 18): induration
- Clinical observation, R-TA (dog D1502 (third dog, c6), 24 hr): Slight swelling/red
- Clinical observation, R-TA (dog D1502 (third dog, c6), 48 hr): Slight swelling/red
- BT (dog D1502 (third dog, c6), 72 hr): leg/BT: 39.3 °C
- BT [1]: leg/BT: 39.3 °C
- Clinical observation, R-TA [1]: induration and red
- BT [2]: BT: 39.4 °C
- Clinical observation, R-TA [2]: induration and red
- BT [3]: BT: 39.0 °C
- Clinical observation, R-TA [3]: induration and red
- BT [4]: at calf/BT: 39.2 °C
- Clinical observation, R-TA [4]: Obvious swelling
- BT [5]: calf/BT: 39.2 °C
- Clinical observation, R-TA [5]: red spot
- BT (dog D1502 (third dog, c6), 240 hr): calf/BT: 38.9 °C
- BT (dog D1502 (third dog, c6), 264 hr): 38.7 °C
- BT (dog D1502 (third dog, c6), 288 hr): 38.7 °C
- BT (dog D1502 (third dog, c6), […]): at calf/BT: 39.3 °C
- Clinical observation, R-TA (dog D1502 (third dog, c6), day 20): Not obvious
- BT (dog D1502, 72 hr): 39.6 °C
- Clinical observation, R-TA (dog D1502, 72 hr): red
- BT (dog D1502, 96 hr): 38.9 °C
- BT (dog D1502, 120 hr): 39.6 °C
- BT (dog D1502, 144 hr): 38.9 °C
- Clinical observation, R-TA (dog D1502, 144 hr): redness
- BT (dog D1502, 192 hr): BT: 38.7 °C
- BT (dog D1502, 216 hr): BT: 39.2 °C
- BT (dog D1502, 240 hr): BT: 38.6 °C
- BT (dog D1502, 264 hr): BT: 38.4 °C
- BT (dog D1502, 288 hr): BT: 38.6 °C
- BT (dog D1502, […]): 39.9 °C
